Entries after “also recorded” stand apart in the source; their conditions may differ. Where two headings read alike, the source gives them in different places.
How the values were obtained:
[1] = test system: 47S rRNA precursor in HEK293T cells; test: Fluorescence in situ hybridization (FISH) of 47S precursor rRNA; format: cell-based, human; settings: HEK293T cells expressing F185A
Method: We next examined the mechanistic link between KDM4A-mediated promoter demethylation and rRNA upregulation (Figure 7A). To confirm that KDM4A specifically stimulates rRNA synthesis, we performed fluorescence in situ hybridization (FISH) using a fluoresceine-attached short DNA complementary to the 47S rRNA precursor. Overexpression of wild type KDM4A and its as variant indeed led to increased expression of the precursor rRNA compared to that of the control vector (Figure 7B,C).
(Sigma B2883-25MG) for 30 seconds, washed with PBS and finally adhered to a slide with gelvatol. The cells were imaged at University of Pittsburgh Center for Biological Imaging on an Olympus Fluoview 1000 II, grant number 1S10OD019973-01 using excitation and emission wavelengths corresponding to that of Rhodamine. Images were analyzed on ImageJ open-source software and NIS elements software.
17. Analysis of rRNA expression in HEK293T cells using fluorescence in-situ hybridization HEK293-T cells (ATCC CRL-1573) were grown in a 24 well plate (Corning) on poly-D-lysine (Gibco A3890401) treated glass coverslips (ThermoScientific 12-545-81P) overnight and transfected the next day with 500 ng KDM4A WT/F185A or Empty Vector (EV) equivalent using 1:2 ug of Thermo Turbofect (FERR0531). […] Images were analyzed on ImageJ open-source software and NIS elements software. […]

KDM4C-F187A = biological target: T1, KDM4C-F187A (Homo sapiens, UniProt Q9H3R0, F187A); test: MALDI-MS demethylase assay on H3K9me3 peptide; format: biochemical; settings: 50 µM (Fig S14)
T1 construct: 6xHis-tagged human KDM4C catalytic domain construct; 6xHis (N); made in house; host or cells: E. coli BL21 [DE3] star
Method: (§1) We next tested the inhibitory potential of 6 against these proteins using H3K9me3 peptide substrate and analyzed it by MALDI-MS. […] We subsequently examined the ability of asKDM4 variants to demethylate full-length histones extracted from mammalian cells. HEK293T cells were cultured in the presence of 10 μM n-octyl IOX1, a broad-spectrum inhibitor of demethylases,[41],[42] to generate a hypermethylated proteome (Figure S19). The extracted histone was incubated with the as variants individually, each with or without 6, and the extent of demethylation was analyzed by Western blot using the H3K9me3-specific antibody. […]
(§2) assay (Biorad) kit with BSA concentrations as a standard. […]
(§3) 8. Demethylase activity of the wild type and mutant KDM4 proteins on peptide substrate To monitor enzymatic activity, a demethylase activity assay was optimized and then observed through MALDI-TOF.7 Each histone demethylase assay sample included either wild type or mutant enzyme (10µM KDM4A, 7.5µM KDM4C, 10µM KDM4D, or 1µM KDM4E), 10 µM peptide, 200 µM 2OG, 50 mM Tris pH 8, […], 0-200µM NOG analogue, and 2 mM L-ascorbic acid with a total assay volume of 10 µL. Fe(II) supplement and L-ascorbic acid […]
(§4) Lastly, the 2OG and peptide were […]
(§5) positive mode and analyzed on Bruker FlexAnalysis software. The percent demethylated peptide […]
(§6) the multiple demethylation events on the peptide. […]

KDM4D-F189A = biological target: T2, KDM4D-F189A (Homo sapiens, UniProt Q6B0I6, F189A); test: MALDI-MS demethylase assay on H3K9me3 peptide; format: biochemical; settings: 50 µM (Fig S15)
T2 construct: human KDM4B and KDM4D jmjC catalytic domain for bacterial; Strep II (N); made in house; host or cells: E. coli Rosetta [DE3]
Method: as §1, §2, §3, §4, §5, §6

KDM4E-F186A = biological target: T3, KDM4E-F186A (Homo sapiens, UniProt B2RXH2, F186A); test: MALDI-MS demethylase assay on H3K9me3 peptide; format: biochemical
T3 construct: we recombinantly expressed the catalytic domains of 12 wild type dioxygenases, in addition to KDM4A-E; 6xHis (N); host or cells: E. coli BL21 (DE3)
Method: as §1, §2, §3, §4, §5, §6

wild type KDM4C = biological target: T4, wild type KDM4C (Homo sapiens, UniProt Q9H3R0); test: MALDI-MS demethylase assay on H3K9me3 peptide; format: biochemical
T4 construct: 6xHis-tagged human KDM4C catalytic domain construct; 6xHis (N); made in house; host or cells: E. coli BL21 [DE3] star
Method: as §1, §2, §3, §4, §5, §6

wild type KDM4E = biological target: T5, wild type KDM4E (Homo sapiens, UniProt B2RXH2); test: MALDI-MS demethylase assay on H3K9me3 peptide; format: biochemical
T5 construct: we recombinantly expressed the catalytic domains of 12 wild type dioxygenases, in addition to KDM4A-E; 6xHis (N); host or cells: E. coli BL21 (DE3)
Method: as §1, §2, §3, §4, §5, §6

wild type 2OG enzymes = test: Off-target activity across wild type 2OG enzymes (MALDI-MS or dot blots); format: biochemical, human; settings: concentrations up to 200 μM
Excerpt: We sought to examine the orthogonality of compound 6 across the human 2OG enzyme family. […] These amino acids, bulky and hydrophobic in nature, likely act as the gatekeeper and preclude binding of the NOG analogues to wild type enzymes. To test the off-target activity of 6, we recombinantly expressed the catalytic domains of 12 wild type dioxygenases, in addition to KDM4A-E, thus covering 30–40% of human 2OG enzymes known to have well-characterized substrates (Figure 3D).

T2 sequence (Q6B0I6 146-312 F189A limits assumed): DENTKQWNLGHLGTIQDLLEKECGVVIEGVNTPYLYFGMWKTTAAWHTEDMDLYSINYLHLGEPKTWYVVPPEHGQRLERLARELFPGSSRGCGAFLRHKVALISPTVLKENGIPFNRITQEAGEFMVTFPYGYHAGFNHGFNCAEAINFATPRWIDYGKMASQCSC
T4 sequence (Q9H3R0 144-310 limits assumed): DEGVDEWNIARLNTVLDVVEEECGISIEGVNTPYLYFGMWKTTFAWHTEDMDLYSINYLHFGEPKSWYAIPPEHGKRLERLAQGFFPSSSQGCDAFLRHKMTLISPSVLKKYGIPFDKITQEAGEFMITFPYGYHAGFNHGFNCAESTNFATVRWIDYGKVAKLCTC
T1 sequence (Q9H3R0 144-310 F187A limits assumed): as the sequence (Q9H3R0 144-310 limits assumed) above, with F44A counted along it
T3 sequence (B2RXH2 143-309 F186A limits assumed): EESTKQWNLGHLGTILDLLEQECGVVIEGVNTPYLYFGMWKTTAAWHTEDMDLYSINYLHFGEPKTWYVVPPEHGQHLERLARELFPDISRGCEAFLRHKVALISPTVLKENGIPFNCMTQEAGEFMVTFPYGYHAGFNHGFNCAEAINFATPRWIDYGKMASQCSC
T5 sequence (B2RXH2 143-309 limits assumed): as the sequence (B2RXH2 143-309 F186A limits assumed) above, with A44F counted along it

Row | SMILES | transcription of the 47S precursor rRNA [1] | inhibition of KDM4C-F187A (KDM4C-F187A) | inhibition of KDM4C-F187A (KDM4C-F187A; listed as NOG 6) | inhibition of KDM4D-F189A (KDM4D-F189A) | inhibition of KDM4D-F189A (KDM4D-F189A; listed as NOG 6) | inhibition of KDM4E-F186A (KDM4E-F186A) | inhibition of wild type KDM4C (wild type KDM4C) | inhibition of wild type KDM4C (wild type KDM4C; listed as NOG 6) | inhibition of wild type KDM4E (wild type KDM4E) | inhibition of wild type 2OG enzymes (wild type 2OG enzymes)
1 | CC(C)CC(NC(=O)C(=O)OCc1cccc(C(F)(F)F)c1)C(=O)O [6B, L-Leu TFMB-ester NOG] | significantly reduced; also recorded: decreased expression of pre-rRNA | – | – | – | – | – | – | – | – | –
2 | CC(C)CC(NC(=O)C(=O)O)C(=O)O (stereo not shown) [compound 6, N-oxalyl leucine] | – | significantly inhibited | inhibits the mutant completely | significantly inhibited | inhibits the mutant completely | significantly inhibited | fully refractory | does not inhibit | fully refractory | did not inhibit

From PMC11783601, “Analogue-Sensitive Inhibition of Histone Demethylases Uncovers Member-Specific Function in Ribosomal Protein Synthesis” (Journal of the American Chemical Society, 2025)
